Measured values from the supplement of paper PMC10307832.

How the values were obtained:
Assay in all cases: relative viability (nuclei count vs DMSO), 5 days (fraction); higher = more cells survive
[1] = compound: CC1=CC(=NN1)NC2=CC(=NC(=N2)/C=C/C3=CC=CC=C3)N4CCN(CC4)C + CS(=O)(=O)N1CCN(Cc2cc3nc(-c4cccc5[nH]ncc45)nc(N4CCOCC4)c3s2)CC1 [Pictilisib] (partner 1 µM)
How it was run: (§1)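 Values are medians from duplicate plates. Each reflects relative viability, defined as the nuclei count of treated wells over that of vehicle wells. Lung cancer cell lines in 1536-well plates were pin-tool dosed one day after seeding with one drug alone or with a fixed anchor-drug dose plus five library-drug doses (not always all listed) in √10 steps, then fixed, stained and imaged at 4× after 5 days.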

Bortezomib + Navitoclax = compound: CC(C)C[C@H](NC(=O)[C@H](Cc1ccccc1)NC(=O)c1cnccn1)B(O)O [Bortezomib] + CC1(C)CCC(c2ccc(Cl)cc2)=C(CN2CCN(c3ccc(C(=O)NS(=O)(=O)c4ccc(N[C@H](CCN5CCOCC5)CSc5ccccc5)c(S(=O)(=O)C(F)(F)F)c4)cc3)CC2)C1 [Navitoclax] (partner 0.5 µM)
How it was run: as §1

[2] = compound: CC1=CC(=NN1)NC2=CC(=NC(=N2)/C=C/C3=CC=CC=C3)N4CCN(CC4)C + Nc1ncn([C@H]2C[C@H](O)[C@@H](CO)O2)c(=O)n1 [Decitabine] (partner 2 µM)
How it was run: as §1

Obatoclax + Navitoclax = compound: COC1=CC(c2cc3ccccc3[nH]2)=N/C1=C\c1[nH]c(C)cc1C [Obatoclax] + CC1(C)CCC(c2ccc(Cl)cc2)=C(CN2CCN(c3ccc(C(=O)NS(=O)(=O)c4ccc(N[C@H](CCN5CCOCC5)CSc5ccccc5)c(S(=O)(=O)C(F)(F)F)c4)cc3)CC2)C1 [Navitoclax] (partner 0.5 µM)
How it was run: as §1

Row | Cell Line | relative viability ([1]; first compound 0.08 µM) | relative viability ([1]; first compound 0.253 µM) | relative viability ([1]; first compound 0.8 µM) | relative viability ([1]; first compound 2.53 µM) | relative viability ([1]; first compound 8 µM) | relative viability (Bortezomib + Navitoclax; first compound 0.0002 µM) | relative viability (Bortezomib + Navitoclax; first compound 0.000632 µM) | relative viability (Bortezomib + Navitoclax; first compound 0.002 µM) | relative viability (Bortezomib + Navitoclax; first compound 0.006325 µM) | relative viability (Bortezomib + Navitoclax; first compound 0.02 µM) | relative viability ([2]; first compound 0.08 µM) | relative viability ([2]; first compound 0.253 µM) | relative viability ([2]; first compound 0.8 µM) | relative viability ([2]; first compound 2.53 µM) | relative viability ([2]; first compound 8 µM) | relative viability (Obatoclax + Navitoclax; first compound 0.01 µM) | relative viability (Obatoclax + Navitoclax; first compound 0.03162 µM) | relative viability (Obatoclax + Navitoclax; first compound 0.1 µM) | relative viability (Obatoclax + Navitoclax; first compound 0.3162 µM) | relative viability (Obatoclax + Navitoclax; first compound 1 µM)
1 | 201T | 0.668 | 0.683 | 0.67 | 0.643 | 0.607 | 1.21 | 1.19 | 1.21 | 1.22 | 1.23 | 0.834 | 0.864 | 0.831 | 0.785 | 0.471 | 1.23 | 1.2 | 1.18 | 1.21 | 1.31
2 | A549 | 0.464 | 0.592 | 0.332 | 0.0385 | 0.0281 | 1.14 | 1.22 | 1.07 | 0.0316 | 0.0335 | 0.21 | 0.394 | 0.212 | 0.104 | 0.0286 | 1.2 | 1.29 | 1.16 | 0.682 | 0.0677
3 | A-427 | 0.836 | 0.247 | 0.741 | 0.401 | 0.11 | 0.91 | 1.01 | 0.963 | 0.988 | 0.112 | 0.603 | 0.582 | 0.568 | 0.489 | 0.213 | 0.864 | 0.917 | 0.95 | 0.986 | 0.959
4 | ABC-1 | 0.764 | 0.76 | 0.792 | 0.284 | 0.173 |  |  |  |  |  | 1.02 | 0.954 | 1.1 | 0.811 | 0.268 |  |  |  |  | 
5 | BEN | 0.622 | 0.578 | 0.598 | 0.411 | 0.193 | 0.0276 | 0.0636 | 0.151 | 0.0617 | 0.0356 | 0.633 | 0.835 | 0.706 | 0.381 | 0.337 | 0.0996 | 0.0601 | 0.052 | 0.0537 | 0.078
6 | CAL-12T | 0.335 | 0.426 | 0.48 | 0.187 | 0.147 | 1.27 | 1.14 | 1.26 | 0.19 | 0.123 |  |  |  |  |  | 1.06 | 1.03 | 1.24 | 0.926 | 0.103
7 | COR-L23 | 0.73 | 0.929 | 0.765 | 0.177 | 0.0607 | 0.933 | 1.02 | 0.528 | 0.0681 | 0.0713 | 0.511 | 0.451 | 0.392 | 0.125 | 0.113 | 1.08 | 1.06 | 0.883 | 0.257 | 0.2
8 | COR-L 105 | 0.461 | 0.429 | 0.353 | 0.205 | 0.223 | 0.745 | 0.786 | 0.684 | 0.291 | 0.253 | 0.549 | 0.847 | 0.624 | 0.425 | 0.235 | 0.815 | 0.649 | 0.792 | 0.741 | 0.388
9 | Calu-6 | 0.876 | 0.807 | 0.648 | 0.131 | 0.103 | 0.749 | 0.882 | 0.69 | 0.0841 | 0.0734 |  |  |  |  |  | 0.874 | 0.977 | 0.852 | 0.506 | 0.0891
10 | EBC-1 | 0.394 | 0.451 | 0.392 | 0.143 | 0.0897 | 0.439 | 0.299 | 0.195 | 0.0921 | 0.104 |  |  |  |  |  | 0.449 | 0.379 | 0.395 | 0.16 | 0.177
11 | IA-LM | 0.319 | 0.505 | 0.378 | 0.173 | 0.0595 | 1.07 | 0.865 | 0.994 | 0.0167 | 0.0073 |  |  |  |  |  | 0.852 | 0.855 | 0.666 | 0.065 | 0.0608
12 | LCLC-103H | 0.623 | 0.676 | 0.58 | 0.5 | 0.347 |  |  |  |  |  | 0.746 | 0.774 | 0.72 | 0.713 | 0.64 |  |  |  |  | 
13 | NCI-H358 | 0.296 | 0.29 | 0.293 | 0.138 | 0.108 |  |  |  |  |  | 0.227 | 0.188 | 0.184 | 0.0835 | 0.0684 |  |  |  |  | 
14 | NCI-H522 |  |  |  |  |  |  |  |  |  |  | 0.593 | 0.685 | 0.69 | 0.601 | 0.391 |  |  |  |  | 
15 | NCI-H661 |  | 0.408 | 0.346 | 0.259 | 0.205 |  |  |  |  |  | 0.551 | 0.529 | 0.524 | 0.302 | 0.249 |  |  |  |  | 
16 | NCI-H1299 | 0.725 | 0.853 | 0.596 | 0.107 | 0.0675 | 0.981 | 0.988 | 1.01 | 0.397 | 0.142 |  |  |  |  |  | 1.04 | 1.07 | 1.04 | 1.07 | 0.997
17 | NCI-H1563 | 0.624 | 0.655 | 0.584 | 0.582 | 0.355 |  |  |  |  |  |  |  |  |  |  |  |  |  |  | 
18 | NCI-H1648 |  |  |  |  |  |  |  |  |  |  | 0.417 | 0.552 | 0.606 | 0.294 | 0.463 |  |  |  |  | 
19 | NCI-H1703 |  | 0.24 | 0.179 | 0.182 | 0.131 | 1.21 | 1.01 | 0.188 | 0.139 | 0.085 |  |  |  |  |  | 1.27 | 1.34 | 0.955 | 0.385 | 0.292
20 | NCI-H2228 | 0.433 | 0.547 | 0.468 | 0.065 | 0.0792 | 1 | 1.05 | 0.368 | 0.0925 | 0.0601 |  |  |  |  |  | 1.16 | 0.984 | 0.677 | 0.919 | 0.944
21 | NCI-H2342 |  |  |  |  |  |  |  |  |  |  | 0.753 | 0.774 | 0.662 | 0.703 | 0.641 |  |  |  |  | 
22 | SW 900 |  |  |  |  |  |  |  |  |  |  | 0.426 | 0.377 | 0.413 | 0.277 | 0.139 |  |  |  |  | 
